Among the data in patent publication US10858335B2 (Rigel Pharmaceuticals, Inc., priority 2014, dated 2020) are IC50 values, retold here.

The test system of this assay is GDF8 signaling (p-SMAD-3 (Ser423/425)). In words: AlphaScreen SureFire SMAD3 (p-Ser423/425) assay, GDF8-stimulated cells (GDF pSMAD). It counts as cell-based. The conditions noted are these: Mus musculus, MPC-11, MPC11; GDF8-stimulated; p-SMAD3 AlphaScreen; read-out: GDF pSMAD (MPC11) (inhibition of GDF8 signaling). In general terms: Bead proximity is the source of the signal in Alpha formats.

Each structure is given as a SMILES string. pIC50: −log10 of the molar value.

As for `Cc1cc(-c2ncc(COCC(N)=O)cc2-c2ccc3nccnc3c2)ccc1F` [compound 233, 2-((6-(4-Fluoro-3-methylphenyl)-5-(quinoxalin-6-yl)pyridin-3-yl)methoxy)acetamide], the pIC50 was 5.17.
With `Cc1cc(-c2ncc(N)cc2-c2ccc3nccnc3c2)ccc1F` [compound 239, 6-(4-Fluoro-3-methylphenyl)-5-(quinoxalin-6-yl)pyridin-3-amine], the pIC50 is 6.57.
On to `Cc1cc(-c2ncc(NC3CCN(C)CC3)cc2-c2ccc3nccnc3c2)ccc1F` [compound 240, 6-(4-Fluoro-3-methylphenyl)-N-(1-methylpiperidin-4-yl)-5-(quinoxalin-6-yl)pyridin-3-amine], for which the pIC50 is 5.13.
For `Cc1cc(-c2ncc(NC(C)C)cc2-c2ccc3nccnc3c2)ccc1F` [compound 241, 6-(4-Fluoro-3-methylphenyl)-N-isopropyl-5-(quinoxalin-6-yl)pyridin-3-amine], the pIC50 is 5.39.
Turning to `Cc1cc(-c2ncc(NC3CCCCC3O)cc2-c2ccc3nccnc3c2)ccc1F` (stereo not shown) [compound 243, 2-((6-(4-Fluoro-3-methylphenyl)-5-(quinoxalin-6-yl)pyridin-3-yl)amino)cyclohexan-1-ol], the pIC50 is 4.92.
The value for `Cc1cc(-c2ncc(NCc3cccnc3)cc2-c2ccc3nccnc3c2)ccc1F` [compound 244, 6-(4-Fluoro-3-methylphenyl)-N-(pyridin-3-ylmethyl)-5-(quinoxalin-6-yl)pyridin-3-amine] was 6.10; that for `Cc1cc(-c2ncc(NCc3ccncc3)cc2-c2ccc3nccnc3c2)ccc1F` [compound 245, 6-(4-Fluoro-3-methylphenyl)-N-(pyridin-4-ylmethyl)-5-(quinoxalin-6-yl)pyridin-3-amine] was 5.90.
`Cc1cc(-c2ncc(NCc3ccccn3)cc2-c2ccc3nccnc3c2)ccc1F` [compound 246, 6-(4-Fluoro-3-methylphenyl)-N-(pyridin-2-ylmethyl)-5-(quinoxalin-6-yl)pyridin-3-amine]: the pIC50 was 5.89.
In the case of `Cc1cc(-c2ncc(NC3CCN(C)CC3)cc2-c2ccc3ncsc3c2)ccc1F` [compound 247, 5-(Benzo[d]thiazol-6-yl)-6-(4-fluoro-3-methylphenyl)-N-(1-methylpiperidin-4-yl)pyridin-3-amine], the pIC50 was 5.50.
`Cc1cc(-c2ncccc2-c2ccc3cnccc3c2)ccc1F` [compound 249, 6-(2-(4-Fluoro-3-methylphenyl)pyridin-3-yl)isoquinoline]: the pIC50 is 5.05.
As for `Cc1cccc(-c2ncccc2-c2ccc3ncn(CCCN4CCOCC4)c3c2)c1` [compound 250, 4-(3-(6-(2-m-Tolylpyridin-3-yl)-1H-benzo[d]imidazol-1-yl)propyl)morpholine], the pIC50 was 4.98.
The value for `Cc1cccc(-c2ncccc2-c2ccc3ncn(CCCN4CCN(C)CC4)c3c2)c1` [compound 251, 1-(3-(4-Methylpiperazin-1-yl)propyl)-6-(2-m-tolylpyridin-3-yl)-1H-benzo[d]imidazole] was 4.75; that for `Cc1cc(-c2ncccc2-c2ccc3ncn(CCCN4CCOCC4)c3c2)ccc1F` [compound 252, 4-(3-(6-(2-(4-fluoro-3-methylphenyl)pyridin-3-yl)-1H-benzo[d]imidazol-1-yl)propyl)morpholine] was 4.90; that for `Cc1cc(-c2ncccc2-c2ccc3ncn(CCCN4CCN(C)CC4)c3c2)ccc1F` [compound 253, 1-(3-(4-Methylpiperazin-1-yl)propyl)-6-(2-(4-fluoro-3-methylphenyl)pyridin-3-yl)-1H-benzo[d]imidazole] was 4.91.
On to `Cc1cc(-c2ncccc2-c2ccc3nc(F)cn3c2)ccc1F` [compound 254, 2-Fluoro-6-(2-(4-fluoro-3-methylphenyl)pyridin-3-yl)imidazo[1,2-a]pyridine], for which the pIC50 is 6.41.
As for `Cc1cc(-c2ncccc2-c2ccc3cnc(C(=O)O)n3c2)ccc1F` [compound 257, 6-(2-(4-Fluoro-3-methylphenyl)pyridin-3-yl)imidazo[1,5-a]pyridine-3-carboxylic acid], the pIC50 was 5.74.
The value for `Cc1cc(-c2ncccc2-c2ccn3c(C(=O)O)ncc3c2)ccc1F` [compound 258, 7-(2-(4-Fluoro-3-methylphenyl)pyridin-3-yl)imidazo[1,5-a]pyridine-3-carboxylic acid] was 5.90; that for `Cc1cc(-c2ncccc2-c2ccn3c(C(=O)NCCCN4CCN(C)CC4)ncc3c2)ccc1F` [compound 264, 7-(2-(4-Fluoro-3-methylphenyl)pyridin-3-yl)-N-(3-(4-methylpiperazin-1-yl)propyl)imidazo[1,5-a]pyridine-3-carboxamide] was 5.04.
In the case of `Cc1cc(-c2ncccc2-c2ccn3c(C(=O)NCCN4CCN(C)CC4)ncc3c2)ccc1F` [compound 265, 7-(2-(4-Fluoro-3-methylphenyl)pyridin-3-yl)-N-(2-(4-methylpiperazin-1-yl)ethyl)imidazo[1,5-a]pyridine-3-carboxamide], the pIC50 was 5.09.
Regarding `Cc1cc(-c2ncccc2-c2ccn3c(C(=O)NCCCN4CCOCC4)ncc3c2)ccc1F` [compound 266, 7-(2-(4-Fluoro-3-methylphenyl)pyridin-3-yl)-N-(3-morpholinopropyl)imidazo[1,5-a]pyridine-3-carboxamide], the pIC50 is 5.34.
As to `Cc1cc(-c2ncccc2-c2ccn3c(C(=O)NCCCN(C)C)ncc3c2)ccc1F` [compound 267, N-(3-(Dimethylamino)propyl)-7-(2-(4-fluoro-3-methylphenyl)pyridin-3-yl)imidazo[1,5-a]pyridine-3-carboxamide], the pIC50 was 5.17.
Regarding `Cc1cc(-c2ncccc2-c2ccn3c(C(=O)NCCN(C)C)ncc3c2)ccc1F` [compound 268, N-(2-(Dimethylamino)ethyl)-7-(2-(4-fluoro-3-methylphenyl)pyridin-3-yl)imidazo[1,5-a]pyridine-3-carboxamide], the pIC50 is 4.84.
As for `Cc1cc(-c2ncccc2-c2ccc3cncn3c2)ccc1F` [compound 269, 6-(2-(4-Fluoro-3-methylphenyl)pyridin-3-yl)imidazo[1,5-a]pyridine], the figure is 5.86.
The value for `Cc1cc(-c2ncccc2-c2ccc3cnc(C(=O)NCCN4CCOCC4)n3c2)ccc1F` [compound 271, 6-(2-(4-Fluoro-3-methylphenyl)pyridin-3-yl)-N-(2-morpholinoethyl)imidazo[1,5-a]pyridine-3-carboxamide] was 5.35; that for `Cc1cc(-c2ncccc2-c2ccc3cnc(C(=O)NCCN4CCCC4)n3c2)ccc1F` [compound 272, 6-(2-(4-Fluoro-3-methylphenyl)pyridin-3-yl)-N-(2-(pyrrolidin-1-yl)ethyl)imidazo[1,5-a]pyridine-3-carboxamide] was 5.47.
Consider `Cc1cc(-c2ncccc2-c2ccc3cnc(C(=O)NCCCN4CCCC4)n3c2)ccc1F` [compound 273, 6-(2-(4-Fluoro-3-methylphenyl)pyridin-3-yl)-N-(3-(pyrrolidin-1-yl)propyl)imidazo[1,5-a]pyridine-3-carboxamide], for which the pIC50 is 5.01.
`Cc1cc(-c2ncccc2-c2ccn3c(C(=O)NCCCN4CCCC4=O)ncc3c2)ccc1F` [compound 274, 7-(2-(4-Fluoro-3-methylphenyl)pyridin-3-yl)-N-(3-(2-oxopyrrolidin-1-yl)propyl)imidazo[1,5-a]pyridine-3-carboxamide]: the pIC50 is 4.83.
Regarding `Cc1cc(-c2ncccc2-c2ccn3c(C(=O)NCCN4CCOCC4)ncc3c2)ccc1F` [compound 275, 7-(2-(4-Fluoro-3-methylphenyl)pyridin-3-yl)-N-(2-morpholinoethyl)imidazo[1,5-a]pyridine-3-carboxamide], the pIC50 is 5.53.
For the molecule `Cc1cc(-c2ncccc2-c2ccn3c(C(=O)NCCCn4ccnc4)ncc3c2)ccc1F` [compound 277, N-(3-(1H-Imidazol-1-yl)propyl)-7-(2-(4-fluoro-3-methylphenyl)pyridin-3-yl)imidazo[1,5-a]pyridine-3-carboxamide], the pIC50 was 5.78.
On to `Cc1cc(-c2ncccc2-c2ccn3c(C(=O)NCCCN4CCCC4)ncc3c2)ccc1F` [compound 278, 7-(2-(4-Fluoro-3-methylphenyl)pyridin-3-yl)-N-(3-(pyrrolidin-1-yl)propyl)imidazo[1,5-a]pyridine-3-carboxamide], for which the pIC50 is 5.65.
Turning to `Cc1cc(-c2ncccc2-c2ccc3ncc(-c4ccc(S(N)(=O)=O)cc4)n3c2)ccc1F` [compound 281, 4-(6-(2-(4-Fluoro-3-methylphenyl)pyridin-3-yl)imidazo[1,2-a]pyridin-3-yl)benzenesulfonamide], the pIC50 is 5.88.
Turning to `Cc1cc(-c2ncccc2-c2ccc3cnc(-c4ccncc4)n3c2)ccc1F` [compound 282, 6-(2-(4-Fluoro-3-methylphenyl)pyridin-3-yl)-3-(pyridin-4-yl)imidazo[1,5-a]pyridine], the pIC50 is 4.71.
Take `Cc1cc(-c2ncccc2-c2ccc3cnc(-c4cccc(N)c4)n3c2)ccc1F` [compound 283, 3-(6-(2-(4-Fluoro-3-methylphenyl)pyridin-3-yl)imidazo[1,5-a]pyridin-3-yl)aniline]: the pIC50 is 4.75.
The value for `COc1cccc(-c2ncc3cc(-c4cccnc4-c4ccc(F)c(C)c4)ccn23)c1` [compound 286, 7-(2-(4-Fluoro-3-methylphenyl)pyridin-3-yl)-3-(3-methoxyphenyl)imidazo[1,5-a]pyridine] was 4.92; that for `Cc1cc(-c2ncccc2-c2ccn3c(-c4ccncc4)ncc3c2)ccc1F` [compound 287, 7-(2-(4-Fluoro-3-methylphenyl)pyridin-3-yl)-3-(pyridin-4-yl)imidazo[1,5-a]pyridine] was 5.52.
For `Nc1nc2ccc(-c3cccnc3-c3ccc(F)c(Cl)c3)cn2n1` [compound 291, 6-(2-(3-Chloro-4-fluorophenyl)pyridin-3-yl)-[1,2,4]triazolo[1,5-a]pyridin-2-amine], the pIC50 is 5.91.
Regarding `Cc1cc(-c2nc3c(cc2-c2ccc4ncsc4c2)NC(=O)CO3)ccc1F` [compound 292, 7-(Benzo[d]thiazol-6-yl)-6-(4-fluoro-3-methylphenyl)-1H-pyrido[2,3-b] [1,4]oxazin-2(3H)-one], the pIC50 is 5.76.
